According to paper PMC8827060, “Identification and characterization of L- and D-lactate-inducible systems from Escherichia coli MG1655, Cupriavidus necator H16 and Pseudomonas species” (Scientific Reports, 2022):

Test system: T1, CnGntR
T1 construct: gene gntR; full-length TR gene with PH16_RS19190-mRFP1 reporter on plasmid pEA007; host C. necator H16; regulator of cluster H16_RS19175-H16_RS19195, its own locus tag inferred
Assay: mRFP1 reporter dose-response in cells, Hill fit
Format: cell-based, Cupriavidus necator
Conditions: inducer of transcriptional regulator; half-maximal reporter output; host C. necator H16; minimal medium with 0.4% gluconate, 30 °C, 6 h; Hill coefficient 1.19; read-out: Km
Excerpt: mRFP1 reporter dose-response in cells, Hill fit on CnGntR

EC50: 670 ± 210 µM
Structure (SMILES): C[C@H](O)C(=O)O [L-lactate]
